Activity calls are given as the source filed them. The rule behind the calls is not given here.
What was measured:
[1] = biological target: T1, Amyloid-beta precursor protein (Homo sapiens, UniProt P05067); assay: Inhibition of HFIP-pretreated amyloid beta (1 to 42) (unknown origin) self-induced aggregation at 25 uM after 48 hrs by thioflavin T-based fluorometric assay relative to control
[2] = biological target: T1, Amyloid-beta precursor protein; assay: Inhibition of HFIP-pretreated amyloid beta (1 to 42) (unknown origin) self-induced aggregation at 75 uM after 48 hrs by thioflavin T-based fluorometric assay relative to control
[3] = Metal chelating activity assessed as Al3+-compound complex formation at 30 uM after 30 mins by UV-Vis spectroscopic method
[4] = Metal chelating activity assessed as Fe2+-compound complex formation by measuring shift in maximum absorption wavelength at 30 uM after 30 mins by UV-Vis spectroscopic method
[5] = biological target: T1, Amyloid-beta precursor protein; assay: Disaggregation of self-induced amyloid beta (1 to 42) (unknown origin) assessed as appearance of sparse fibrils at 50 uM after 48 hrs by transmission electron microscopic analysis
[6] = biological target: T1, Amyloid-beta precursor protein; assay: Inhibition of HFIP-pretreated amyloid beta (1 to 42) (unknown origin) self-induced aggregation after 48 hrs by thioflavin T-based fluorometric assay
[7] = biological target: Acetylcholinesterase (Electrophorus electricus) (UniProt O42275); assay: Potency index, ratio of donepezil effect to test compound effect for inhibition of electric eel AChE-induced amyloid beta (1 to 42) aggregation
Sequence of Acetylcholinesterase (Electrophorus electricus) (O42275 24-633 limits assumed): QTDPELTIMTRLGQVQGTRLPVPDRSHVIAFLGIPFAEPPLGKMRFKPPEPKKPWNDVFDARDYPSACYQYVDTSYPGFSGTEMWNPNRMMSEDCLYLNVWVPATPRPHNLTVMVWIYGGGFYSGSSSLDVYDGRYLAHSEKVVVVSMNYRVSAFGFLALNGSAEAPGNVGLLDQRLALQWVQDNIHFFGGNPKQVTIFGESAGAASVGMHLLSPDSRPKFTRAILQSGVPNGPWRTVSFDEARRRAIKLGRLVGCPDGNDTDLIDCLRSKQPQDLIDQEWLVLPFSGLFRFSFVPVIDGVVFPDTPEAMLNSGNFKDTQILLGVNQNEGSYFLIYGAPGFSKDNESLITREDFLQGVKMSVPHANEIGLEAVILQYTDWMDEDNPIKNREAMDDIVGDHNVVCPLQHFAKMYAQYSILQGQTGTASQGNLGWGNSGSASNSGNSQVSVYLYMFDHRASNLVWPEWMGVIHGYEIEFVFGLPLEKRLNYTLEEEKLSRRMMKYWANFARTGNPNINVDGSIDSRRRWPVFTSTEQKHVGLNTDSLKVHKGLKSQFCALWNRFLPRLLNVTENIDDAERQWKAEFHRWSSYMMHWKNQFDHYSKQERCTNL

[8] = Metal chelating activity assessed as Cu2+-compound complex formation by measuring shift in maximum absorption wavelength at 30 uM after 30 mins by UV-Vis spectroscopic method
[9] = Antioxidant activity assessed as trolox equivalent of AAPH-induced radical scavenging activity at 1 to 8 uM pretreated for 15 mins followed by AAPH addition measured at 1 min interval for 80 mins by ORAC-FL assay; type: functional
[10] = Inhibition of Cu2+-induced amyloid beta (1 to 42 residues) (unknown origin) aggregation at 50 uM after 24 hrs by thioflavin T-based fluorometric assay relative to control
[11] = biological target: T1, Amyloid-beta precursor protein; assay: Inhibition of HFIP-pretreated amyloid beta (1 to 42) (unknown origin) self-induced aggregation at 50 uM after 48 hrs by thioflavin T-based fluorometric assay relative to control
[12] = Metal chelating activity assessed as Zn2+-compound complex formation at 30 uM after 30 mins by UV-Vis spectroscopic method
[13] = Metal chelating activity assessed as stoichiometric ratio of Cu2+-compound complex at 30 uM after 30 mins by Job plot analysis
[14] = Metal chelating activity assessed as Al3+-compound complex formation by measuring shift in maximum absorption wavelength at 30 uM after 30 mins by UV-Vis spectroscopic method
[15] = Metal chelating activity assessed as Zn2+-compound complex formation by measuring shift in maximum absorption wavelength at 30 uM after 30 mins by UV-Vis spectroscopic method

T1 sequence (P05067 whole entry): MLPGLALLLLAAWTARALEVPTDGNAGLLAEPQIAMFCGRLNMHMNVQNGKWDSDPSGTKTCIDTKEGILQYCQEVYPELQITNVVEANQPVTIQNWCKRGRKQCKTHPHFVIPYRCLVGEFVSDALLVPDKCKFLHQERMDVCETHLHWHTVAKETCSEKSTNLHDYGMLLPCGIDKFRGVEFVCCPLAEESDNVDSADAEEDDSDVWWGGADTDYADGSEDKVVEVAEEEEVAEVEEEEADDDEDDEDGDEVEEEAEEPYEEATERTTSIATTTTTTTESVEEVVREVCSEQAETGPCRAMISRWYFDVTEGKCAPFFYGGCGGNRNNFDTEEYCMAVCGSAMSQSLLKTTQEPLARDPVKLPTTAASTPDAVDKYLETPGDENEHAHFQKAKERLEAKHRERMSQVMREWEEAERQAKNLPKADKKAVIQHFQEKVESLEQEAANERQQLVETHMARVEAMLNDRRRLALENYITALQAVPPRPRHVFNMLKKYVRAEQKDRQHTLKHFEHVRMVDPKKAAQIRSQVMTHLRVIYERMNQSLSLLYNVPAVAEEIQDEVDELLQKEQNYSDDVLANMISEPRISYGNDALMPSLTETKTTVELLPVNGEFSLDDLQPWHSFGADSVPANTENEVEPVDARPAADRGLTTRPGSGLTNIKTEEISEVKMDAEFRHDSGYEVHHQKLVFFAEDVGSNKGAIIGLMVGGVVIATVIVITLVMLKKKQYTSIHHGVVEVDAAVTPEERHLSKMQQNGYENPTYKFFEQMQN

## CCOc1cc(CNc2ccccc2)ccc1Oc1ccnc2cc(Cl)ccc12
[1]
  inhibition: 37.1%
[2]
  inhibition: 3.37%
[3]
  Activity: Active
[4]
  Activity: 305 nm
[5]
  Activity: Active
[6]
  IC50: 44.5 µM
[7]
  Ratio: > 2
[8]
  Activity: 305 nm
[9]
  Activity (umolequiv/umol): 2.72
[10]
  inhibition: 22.4%
[11]
  inhibition: 53.6%
[12]
  Activity: Active
[13]
  Ratio: 0.5

## CCOc1cc(CNc2ccc(C)cc2)ccc1Oc1ccnc2cc(Cl)ccc12
[9]
  Activity (umolequiv/umol): 2.28
[11]
  inhibition: 46.8%

## COc1cc(/C=C/C(=O)CC(=O)/C=C/c2ccc(O)c(OC)c2)ccc1O
[10]
  inhibition: 52.9%

## CCOc1cc(CNc2cccc(C)n2)ccc1Oc1ccnc2cc(Cl)ccc12
[9]
  Activity (umolequiv/umol): 0.87
[11]
  inhibition: 41.6%

## CCOc1cc(CNc2ccccn2)ccc1Oc1ccnc2cc(Cl)ccc12
[9]
  Activity (umolequiv/umol): 0.55
[11]
  inhibition: 41.5%

## CCOc1cc(CNc2ccc(OC)cc2)ccc1Oc1ccnc2cc(Cl)ccc12
[14]
  Activity: 304 nm
[1]
  inhibition: 26.7%
[2]
  inhibition: 6.89%
[4]
  Activity: 305 nm
[5]
  Activity: Active
[6]
  IC50: 46.4 µM
[7]
  Ratio: > 2
[8]
  Activity: 304 nm
[9]
  Activity (umolequiv/umol): 1.95
[10]
  inhibition: 32.7%
[11]
  inhibition: 53.7%
[15]
  Activity: 304 nm
[13]
  Ratio: 0.8

## CCOc1cc(CNc2ccc(F)cc2F)ccc1Oc1ccnc2cc(Cl)ccc12
[9]
  Activity (umolequiv/umol): 2.37
[11]
  inhibition: 27.8%

## CCOc1cc(CNc2cccc(C(F)(F)F)c2)ccc1Oc1ccnc2cc(Cl)ccc12
[9]
  Activity (umolequiv/umol): 1.56
[11]
  inhibition: 30%
